Results as given in ChEMBL document CHEMBL4316655, “Sesquiterpenoids from the Endophytic Fungus Rhinocladiella similis” (J Nat Prod, 2019).
Converted amounts (≈) assume the structure as drawn.

Key:
[1] = system: L5178Y; assay: Cytotoxicity against mouse L5178Y cells by MTT assay; format: functional, cell-based
[2] = system: Staphylococcus aureus; assay: Antibacterial activity against Staphylococcus aureus ATCC 29213 by broth microdilution method; format: functional
[3] = system: Klebsiella pneumoniae; assay: Antibacterial activity against Klebsiella pneumoniae ATCC 13883 by broth microdilution method; format: functional
[4] = system: Enterococcus faecium; assay: Antibacterial activity against Enterococcus faecium ATCC 35667 by broth microdilution method; format: functional

**Q.** For `CC(C)[C@H]1CC[C@@](O)(COC(=O)C2=C[C@@H]3[C@@H](C(C)C)CC[C@@](O)(CCl)[C@H]3C(=O)OC2)[C@H]2C(=O)OCC(C(=O)O)=C[C@H]12`, which IC50 [1] is on record?
**A.** 5 µM

**Q.** `CC(C)[C@H]1CC[C@@](O)(CCl)[C@H]2C(=O)OCC(C(=O)O)=C[C@H]12` [HEPTELIDIC ACID CHLOROHYDRIN] was tested. Which MIC [2] did it give?
**A.** 50 µM (≈ 15.8 µg/mL)

**Q.** What about the MIC [3] of the same compound?
**A.** 100 µM (≈ 31.7 µg/mL)

**Q.** What about the MIC [4] of the same compound?
**A.** 50 µM (≈ 15.8 µg/mL)

**Q.** With `CC(C)[C@H]1CCC(CO)=C[C@@H]1/C=C(\CO)C(=O)O` [GLIOCLADIC ACID] as the compound, how does the IC50 [1] read?
**A.** 24.4 µM

**Q.** For `CC(C)[C@H]1CC[C@H](CO)[C@@H]2[C@@H]1C=C(C(=O)O)C[C@H]2O`, which IC50 [1] is on record?
**A.** 8.7 µM
